The nature of assay [1]: Organoleptic evaluation, ramen soup (Test Example 11). To be noted: addition quinic acid-containing composition 5.0 ppm, spilanthol 0.1 ppm, shallot extract 10.0 ppm, panel of 10 experts vs control. As for the experimental part:
The taste-improving agents obtained in Production Examples 1-5 were used to examine the taste-improving effects on potassium salts or potassium salt-containing foods or drinks. [table] To reduced-sodium ramen soup having the following formulation 4 there were added each of the agents for improving taste of Production Examples 2, 4 and 5 so that the contents of the quinic acid-containing composition (Production Example 2), purified spilanthol (Production Example 4) and shallot extract (Production Example 5) in the soup were as listed in Table 8, and an organoleptic evaluation was conducted by a panel of 10 experts based on the rating scale shown in Table 1, with a product containing no agent for improving taste according to the invention, as the control. [table] A 20 g portion of the powder above was dissolved in 500 g of hot water.

Assay [2] can be described thus: Organoleptic evaluation, meat sauce (Test Example 14). As to conditions: addition quinic acid-containing composition 5.0 ppm, spilanthol 0.1 ppm, shallot extract 10.0 ppm, panel of 10 experts vs control. As for the experimental part:
(§1) The taste-improving agents obtained in Production Examples 1-5 were used to examine the taste-improving effects on potassium salts or potassium salt-containing foods or drinks. [table] To reduced-sodium meat sauce having the following formulation 8 there were added each of the agents for improving taste of Production Examples 1, 2, 4 and 5 so that the contents of the quinic acid-containing compositions (Production Examples 1 and 2), purified spilanthol (Production Example 4) and shallot extract (Production Example 5) in the meat sauce were as listed in Table 12, and an organoleptic evaluation was conducted by a panel of 10 experts based on the rating scale shown in Table 1, with a product containing no agent for improving taste according to the invention, as the control. [table]

A short description of assay [3]: Organoleptic evaluation, cream stew (second Test Example 13). As to conditions: addition quinic acid-containing composition 5.0 ppm, spilanthol 0.1 ppm, shallot extract 10.0 ppm, panel of 10 experts vs control. As for the experimental part: as §1, with “reduced-sodium cream stew” for “reduced-sodium meat sauce”, “formulation 7” for “formulation 8”, “the stew” for “the meat sauce”, “Table 11,” for “Table 12,”

Assay [4] in a line: Organoleptic evaluation, potassium chloride aqueous solution (Test Example 5). To be noted: 0.75 wt % KCl aqueous solution; addition quinic acid-containing composition 5.0 ppm, spilanthol 0.1 ppm, shallot extract 10.0 ppm; panel of 10 experts vs control without agent. As for the experimental part:
The taste-improving agents obtained in Production Examples 1-5 were used to examine the taste-improving effects on potassium salts or potassium salt-containing foods or drinks. [table] To a 0.75 wt % potassium chloride aqueous solution there were added each of the agents for improving taste of Production Examples 1-5, so that the content of the quinic acid-containing compositions (Production Examples 1 and 2), spilanthol (Production Examples 3 and 4) or shallot extract (Production Example 5) in the potassium chloride aqueous solution was as listed in Table 2, and an organoleptic evaluation was conducted by a panel of 10 experts based on the rating scale shown in Table 1, with a product containing no agent for improving taste according to the invention, as the control.

Take `CC=CC=CCCC=CC(=O)NCC(C)C` [Purified spilanthol (Prod. Ex. 4), N-isobutyl-2,6,8-decatrieneamide]: in assay [1], the Chicken flavor result is given as “− (No effect/change (fewer than 3/10 panelists noticed an effect compared to the control))”, the Salty taste result is on record as “+ (Somewhat noticeable effect (at least 3/10 panelists noticed an effect compared to the control))” and the Unpleasant taste result was “+ (Somewhat noticeable effect (at least 3/10 panelists noticed an effect compared to the control))”. In assay [2], the Meat flavor entry is “− (No effect/change (fewer than 3/10 panelists noticed an effect compared to the control))”, the Metallic taste entry is “+ (Somewhat noticeable effect (at least 3/10 panelists noticed an effect compared to the control))” and the Tomato flavor result was “− (No effect/change (fewer than 3/10 panelists noticed an effect compared to the control))”. In addition, in assay [3], the Milk flavor entry is given as “− (No effect/change (fewer than 3/10 panelists noticed an effect compared to the control))”, the Sweet taste result was “− (No effect/change (fewer than 3/10 panelists noticed an effect compared to the control))” and the Unpleasant taste entry is reported as “+ (Somewhat noticeable effect (at least 3/10 panelists noticed an effect compared to the control))”. Further, in assay [4], the Metallic taste entry is on record as “++ (Noticeable effect (at least 5/10 panelists noticed an effect compared to the control))”.

Values taken from US20110104361A1, “TASTE-IMPROVING AGENT FOR POTASSIUM SALT OR POTASSIUM SALT-CONTAINING FOOD OR DRINK” (OGAWA & CO., LTD., priority 2008, published 2011).
